“And” between values parts separate entries of the source, which are not always exact repeats. Identical values can stand only once.
Experiments:
[1] = Struck et al., J. Med. Chem., 9, 414-417 (1966); cited from earlier work
P388 leukemia = assay: in vivo ip P388 lymphocytic leukemia mouse model; design: species or system mouse (B6D2F1); details: mice bearing ip P388 leukemia; ip Days 1-5; figures separated by slashes are from separate experiments
Description: P388 lymphocytic leukemia is currently the most widely used animal tumor model for screening for antitumor agents and for detailed evaluation of active compounds. This tumor system is widely accepted as an antitumor agent screening tool because it is sensitive to virtually all of the clinically active antineoplastic agents; quantitative and reproducible; amenable for large-scale screening; and predictive for activity in other animal tumor models.
10^6 P388 leukemia cells are inoculated ip in B6D2F1 mice. Twenty-four hours later, if the tumor inoculum proves to be free of bacterial contamination (as determined by 24 hours incubation in thioglycollate broth), animals are randomized into groups of 6 and housed in shoebox cages. The compound to be evaluated is dissolved in a minimal volume of N,N-dimethylacetamide (DMA). An equal volume of saline is added; if the drug comes out of solution an equal volume of polyethoxylated castor oil is added and then saline qs to a concentration such that the desired dose is delivered in 0.5 ml. The final concentration of DMA and polyethoxylated castor oil is 10 percent. Dilutions for lower doses are made with saline so there is a decreasing proportion of organic solvents in the vehicle with decreasing dosage. This vehicle provides a soluble formulation. […] Animals are monitored daily for mortality and experiments are terminated after 45 days. […]

B16 melanoma = assay: in vivo ip B16 melanoma assay; design: species or system mouse (B6D2F1); details: mice bearing ip B16 melanoma; ip daily for 10 days
Experimental: (§1) In this system, groups of eight B6D2F1 mice are inoculated ip with 0.5 ml of a 10% (w:v) brei of B15 melanoma prepared from pooled sc tumors excised at 14-21 days from […] donor mice. Daily treatment is begun 24 hours after tumor implantation and is continued daily for ten (10) days. The route of drug administration is ip. The mice are monitored daily for survival for sixty (60) days. Antitumor activity is assessed by prolongation of median survival time. An ILS of ≥25% indicates activity in this tumor model.

[2] = test system: M5076 reticulum cell sarcoma; assay: ip M5076 reticulum cell sarcoma tumor model; format: in vivo, mouse (B6D2F); details: mice bearing ip M5076 reticulum cell sarcoma; ip daily for 10 days
Experimental: (§2) Another chemosensitive tumor model is intraperitoneally (ip) implanted M5076 reticulum cell sarocma in mice. In this system B6D2F female mice are inoculated with 0.5 ml of a 10 percent (w:v) brei of M5076 prepared from pooled subcutaneous (sc) tumors excised at about 21 days from C57B1/6 donors. Drugs are administered ip. Daily treatment is begun 24 hours after implantation and is continued for ten days. The treatment regimen for M5076 is more prolonged than for P388 because of the slower growth rate and longer control survival time of the M5076 tumor. A drug is considered active in this tumor model if it produces ≥25% ILS.

[3] = maximally tolerated dose, mice, ip qD x 10 (Table B); format: in vivo, mouse (B6D2F1); details: B6D2F1 mice, ip qD x 10 regimen
Experimental: as §1
^(b) maximally tolerated dose for B6D2F1 mice on an ip qD .times

[4] = maximally tolerated dose, mice, ip qD x 10 (Table C); format: in vivo, mouse (B6D2F female); details: B6D2F female mice, ip qD x 10 regimen
Experimental: as §2
^(b) maximally tolerated dose for B6D2F female mice on ip qD ×

Compound | cytotoxic activity [1] | ILS (max): maximum increase in lifespan (P388 leukemia) | ILS: maximum increase in lifespan (B16 melanoma) [%] | ILS (MAX): maximum increase in lifespan [2] [%] | MTD (maximally tolerated dose) [3] [mg/kg] | MTD (maximally tolerated dose) [4] [mg/kg]
c1ccc(P(CCP(c2ccccc2)c2ccccc2)c2ccccc2)cc1 [1,2-bis(diphenylphosphino)ethane] | cytotoxic activity | – | – | – | – | –
[Cl][Au].c1ccc(P(CCP(CCP(c2ccccc2)c2ccccc2)c2ccccc2)CCP(c2ccccc2)c2ccccc2)cc1 (stereo not drawn) [Compound 1, Chloro[1,1,4,7,10,10-hexaphenyl-1,4,7,10-tetraphosphodecane-P^1, P^4, P^7, P^10]gold(I)] | – | 40% and 65% | 37 | 38 | 2 | 2

Source: patent US4758589A, “Tetraphosphine-coordinated gold(I) complexes” (SmithKline Beckman Corporation, priority 1987, dated 1988)
